Experimental data from ChEMBL document CHEMBL1201862, “PubChem BioAssay data set” (2004).
The source made the active and inactive calls. Rule as the data show it: actives have a measured IC50 and inactives only a lower limit.

These molecules were tested against Envelope glycoprotein gp160 (Human immunodeficiency virus 1, UniProt Q6QLK5) (assay: inhibitors of HIV fusion peptide binding, primary screen, biochemical, uHTS, fluorescence dequenching (AID 1986)).
Envelope glycoprotein gp160, sequence (Q6QLK5 whole entry, the tested form may be a part): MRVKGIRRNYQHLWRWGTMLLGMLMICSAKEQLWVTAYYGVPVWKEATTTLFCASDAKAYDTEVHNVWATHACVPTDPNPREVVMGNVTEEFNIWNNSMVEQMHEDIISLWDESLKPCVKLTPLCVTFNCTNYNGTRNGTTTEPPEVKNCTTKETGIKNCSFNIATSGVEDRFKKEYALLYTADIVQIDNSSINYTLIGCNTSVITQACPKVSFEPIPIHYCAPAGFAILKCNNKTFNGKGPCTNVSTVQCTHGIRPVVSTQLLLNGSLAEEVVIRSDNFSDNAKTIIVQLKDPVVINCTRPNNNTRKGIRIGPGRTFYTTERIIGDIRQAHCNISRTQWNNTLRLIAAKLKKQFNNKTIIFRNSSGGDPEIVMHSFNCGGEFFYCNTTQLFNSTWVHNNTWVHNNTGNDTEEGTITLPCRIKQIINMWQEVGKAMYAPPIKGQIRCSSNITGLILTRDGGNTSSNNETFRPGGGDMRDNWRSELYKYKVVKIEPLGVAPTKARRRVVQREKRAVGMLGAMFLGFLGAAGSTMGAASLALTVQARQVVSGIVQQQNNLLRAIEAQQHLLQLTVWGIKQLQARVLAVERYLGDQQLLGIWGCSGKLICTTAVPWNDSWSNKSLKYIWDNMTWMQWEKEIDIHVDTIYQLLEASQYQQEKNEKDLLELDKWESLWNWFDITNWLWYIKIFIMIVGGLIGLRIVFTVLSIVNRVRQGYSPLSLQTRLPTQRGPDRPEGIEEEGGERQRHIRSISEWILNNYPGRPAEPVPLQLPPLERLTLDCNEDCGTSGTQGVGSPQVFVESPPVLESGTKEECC
In the case of `CCn1nc([N+](=O)[O-])c(C(C#N)c2nc3cc(C(F)(F)F)ccc3s2)c(Cl)c1=O` (stereo not drawn), the IC50 is reported as 14.9 µM (active). In the case of `CC(c1ccccc1)N1C(=O)c2ccc(C(=O)Nc3ccccc3C(=O)O)cc2C1=O` (stereo not drawn), the IC50 is reported as 19.3 µM (active). For `Cc1c2c(=O)n(-c3nc4ccccc4s3)nc-2cc(O)n1Cc1ccccc1`, the IC50 was 13.8 µM (active).
